Results: ChEMBL document CHEMBL1140660, “Synthesis and structure-activity relationship of a novel, non-hydroxamate series of TNF-alpha converting enzyme inhibitors” (Bioorg Med Chem Lett, 2007)

Columns and labels:
[1] = target: Disintegrin and metalloproteinase domain-containing protein 17 (Sus scrofa, UniProt O77636); assay: Inhibition of porcine TACE
[2] = target: 72 kDa type IV collagenase (Homo sapiens, UniProt P08253); assay: Inhibition of MMP2
Stromelysin-1 = Stromelysin-1 (Homo sapiens, UniProt P08254); assay: Inhibition of MMP3
Stromelysin-1, sequence (P08254 whole entry): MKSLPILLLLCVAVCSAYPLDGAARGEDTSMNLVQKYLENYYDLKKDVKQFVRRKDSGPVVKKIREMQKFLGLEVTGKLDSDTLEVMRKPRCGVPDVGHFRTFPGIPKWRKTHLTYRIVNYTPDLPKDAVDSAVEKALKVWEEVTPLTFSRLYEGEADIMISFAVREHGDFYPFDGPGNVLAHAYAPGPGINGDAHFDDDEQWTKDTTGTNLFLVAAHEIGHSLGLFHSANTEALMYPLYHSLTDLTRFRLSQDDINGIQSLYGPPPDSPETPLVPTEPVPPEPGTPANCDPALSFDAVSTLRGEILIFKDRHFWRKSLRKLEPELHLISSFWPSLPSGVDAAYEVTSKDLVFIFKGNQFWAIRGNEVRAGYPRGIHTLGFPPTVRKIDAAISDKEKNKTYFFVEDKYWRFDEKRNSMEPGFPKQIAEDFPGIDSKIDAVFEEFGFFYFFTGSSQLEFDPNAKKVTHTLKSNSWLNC

Matrilysin = target: T1, Matrilysin (Homo sapiens, UniProt P09237); assay: Inhibition of MMP7
T1 sequence (P09237 whole entry): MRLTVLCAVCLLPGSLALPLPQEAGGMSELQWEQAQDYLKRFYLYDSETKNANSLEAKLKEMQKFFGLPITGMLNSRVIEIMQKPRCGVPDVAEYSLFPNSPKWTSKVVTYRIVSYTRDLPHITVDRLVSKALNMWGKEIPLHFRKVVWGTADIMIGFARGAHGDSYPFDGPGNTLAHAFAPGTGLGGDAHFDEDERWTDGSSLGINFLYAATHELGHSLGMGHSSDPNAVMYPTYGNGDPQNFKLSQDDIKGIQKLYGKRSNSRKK

[3] = target: Macrophage metalloelastase (Homo sapiens, UniProt P39900); assay: Inhibition of MMP12
Macrophage metalloelastase, sequence (P39900 whole entry): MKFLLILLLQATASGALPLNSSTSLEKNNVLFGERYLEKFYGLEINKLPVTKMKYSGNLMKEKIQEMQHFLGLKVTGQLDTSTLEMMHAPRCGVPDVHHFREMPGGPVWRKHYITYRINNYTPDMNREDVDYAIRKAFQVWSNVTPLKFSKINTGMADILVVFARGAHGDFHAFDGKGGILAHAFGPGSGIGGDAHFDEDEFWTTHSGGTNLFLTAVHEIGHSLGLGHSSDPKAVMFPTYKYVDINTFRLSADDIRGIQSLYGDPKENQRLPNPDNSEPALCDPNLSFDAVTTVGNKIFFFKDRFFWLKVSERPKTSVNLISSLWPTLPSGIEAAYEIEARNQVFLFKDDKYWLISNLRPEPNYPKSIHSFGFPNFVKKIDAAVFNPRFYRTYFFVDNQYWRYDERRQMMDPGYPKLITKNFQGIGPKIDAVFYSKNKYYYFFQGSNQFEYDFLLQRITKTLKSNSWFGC

Collagenase 3 = Collagenase 3 (Homo sapiens, UniProt P45452); assay: Inhibition of MMP13

Disintegrin and metalloproteinase domain-containing protein 17, sequence (O77636 whole entry, the tested form may be a part): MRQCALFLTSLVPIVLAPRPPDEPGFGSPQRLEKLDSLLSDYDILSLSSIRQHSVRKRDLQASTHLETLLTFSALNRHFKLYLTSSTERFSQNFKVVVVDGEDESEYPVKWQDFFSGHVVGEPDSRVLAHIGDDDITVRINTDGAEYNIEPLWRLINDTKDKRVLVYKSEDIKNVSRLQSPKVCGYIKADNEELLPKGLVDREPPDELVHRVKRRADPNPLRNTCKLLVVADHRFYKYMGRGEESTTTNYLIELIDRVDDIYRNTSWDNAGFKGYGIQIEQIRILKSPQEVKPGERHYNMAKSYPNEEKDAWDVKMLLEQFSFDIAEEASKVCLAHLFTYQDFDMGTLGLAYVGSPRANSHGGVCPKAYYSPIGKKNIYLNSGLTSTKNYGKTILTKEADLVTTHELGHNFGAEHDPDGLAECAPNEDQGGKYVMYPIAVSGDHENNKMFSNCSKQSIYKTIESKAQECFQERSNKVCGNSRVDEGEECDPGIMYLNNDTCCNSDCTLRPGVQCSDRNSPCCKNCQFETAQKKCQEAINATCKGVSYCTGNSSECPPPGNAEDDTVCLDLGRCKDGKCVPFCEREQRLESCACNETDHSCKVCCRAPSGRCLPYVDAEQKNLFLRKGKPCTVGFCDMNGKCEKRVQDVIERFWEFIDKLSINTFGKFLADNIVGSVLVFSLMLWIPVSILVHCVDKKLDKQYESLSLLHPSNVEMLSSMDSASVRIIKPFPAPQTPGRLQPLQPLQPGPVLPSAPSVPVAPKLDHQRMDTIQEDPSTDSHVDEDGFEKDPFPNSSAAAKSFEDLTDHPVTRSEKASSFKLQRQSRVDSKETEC
72 kDa type IV collagenase, sequence (P08253 whole entry): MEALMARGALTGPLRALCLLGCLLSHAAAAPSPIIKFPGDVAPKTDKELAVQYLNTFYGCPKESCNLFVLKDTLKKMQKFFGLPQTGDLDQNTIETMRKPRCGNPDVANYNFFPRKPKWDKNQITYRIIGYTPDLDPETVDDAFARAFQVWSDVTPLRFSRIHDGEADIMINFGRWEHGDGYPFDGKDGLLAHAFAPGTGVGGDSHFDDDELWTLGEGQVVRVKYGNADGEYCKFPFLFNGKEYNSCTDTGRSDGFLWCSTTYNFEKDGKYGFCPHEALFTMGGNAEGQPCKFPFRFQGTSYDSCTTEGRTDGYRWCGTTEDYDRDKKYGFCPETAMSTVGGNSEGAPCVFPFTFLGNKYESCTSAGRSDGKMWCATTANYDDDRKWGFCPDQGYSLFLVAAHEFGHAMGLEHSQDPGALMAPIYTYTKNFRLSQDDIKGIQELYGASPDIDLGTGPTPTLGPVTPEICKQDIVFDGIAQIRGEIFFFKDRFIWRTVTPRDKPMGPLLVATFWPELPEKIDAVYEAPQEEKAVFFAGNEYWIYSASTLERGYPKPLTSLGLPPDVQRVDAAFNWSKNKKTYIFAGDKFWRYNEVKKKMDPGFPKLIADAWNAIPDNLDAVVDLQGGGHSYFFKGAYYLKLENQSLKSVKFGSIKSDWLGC

Row | SMILES | IC50 [1] | Ki [2] | Ki (Stromelysin-1) | Ki (Matrilysin) | Ki [3] | Ki (Collagenase 3)
1 | Cc1cc(COc2ccc(C(=O)N[C@@H]3CCC[C@@H]3c3n[nH]c(=S)[nH]3)cc2)c2ccccc2n1 (relative stereo) | 0.041 µM | > 3.33 µM | > 4.5 µM | > 6.37 µM | > 6.02 µM | > 5.03 µM
2 | Cc1cc(COc2ccc(C(=O)N[C@@H]3CCNC[C@@H]3c3n[nH]c(=S)[nH]3)cc2)c2ccccc2n1 (relative stereo) | 0.043 µM | > 3.33 µM | > 4.5 µM | > 6.37 µM | > 6.02 µM | > 5.03 µM
3 | Cc1cc(COc2ccc(C(=O)N[C@@H]3CCOC[C@@H]3c3n[nH]c(=S)[nH]3)cc2)c2ccccc2n1 (relative stereo) | 0.0081 µM | > 3.33 µM | > 4.5 µM | > 6.37 µM | > 6.02 µM | > 5.03 µM
4 | Cc1cc(COc2ccc(C(=O)NC3(Cc4n[nH]c(=S)[nH]4)CCN(C(=O)OC(C)(C)C)CC3)cc2)c2ccccc2n1 | 0.036 µM | > 3.33 µM | > 4.5 µM | > 6.37 µM | > 6.02 µM | > 5.03 µM
5 | Cc1cc(COc2ccc(C(=O)NC3(Cc4n[nH]c(=S)[nH]4)CCOCC3)cc2)c2ccccc2n1 | 0.024 µM | 1.6 µM | 2.1 µM | 0.635 µM | 0.223 µM | 0.753 µM
6 | Cc1cc(COc2ccc(C(=O)N[C@@H]3CNCC[C@@H]3c3n[nH]c(=S)[nH]3)cc2)c2ccccc2n1 (relative stereo) | 0.0094 µM | > 3.33 µM | > 4.5 µM | > 6.37 µM | > 6.02 µM | > 5.03 µM
7 | Cc1cc(COc2ccc(C(=O)NCCc3n[nH]c(=S)[nH]3)cc2)c2ccccc2n1 | 0.21 µM | > 3.33 µM | > 4.5 µM | > 6.37 µM | > 6.02 µM | > 5.03 µM
8 | Cc1cc(COc2ccc([C@]3(N)CCN([C@H](CC(C)C)c4n[nH]c(=S)[nH]4)C3=O)cc2)c2ccccc2n1 | > 1 µM | > 3.33 µM | > 4.5 µM | > 6.37 µM | > 6.02 µM | > 5.03 µM
9 | Cc1cc(COc2ccc(C(=O)N[C@@H]3CN(C(=O)OC(C)(C)C)CC[C@@H]3c3n[nH]c(=S)[nH]3)cc2)c2ccccc2n1 (relative stereo) | 0.075 µM | > 3.33 µM | > 4.5 µM | > 6.37 µM | > 6.02 µM | > 5.03 µM
10 | Cc1cc(COc2ccc(C(=O)NC(C)(C)Cc3n[nH]c(=S)[nH]3)cc2)c2ccccc2n1 | 0.055 µM | > 3.33 µM | > 4.5 µM | > 6.37 µM | > 6.02 µM | > 5.03 µM
11 | CC(=O)N1C[C@H](c2n[nH]c(=S)[nH]2)[C@H](NC(=O)c2ccc(OCc3cc(C)nc4ccccc34)cc2)C1 (relative stereo) | 0.0015 µM | > 3.33 µM | > 4.5 µM | > 6.37 µM | > 6.02 µM | > 5.03 µM
12 | Cc1cc(COc2ccc(C(=O)N[C@@H]3CNC[C@@H]3c3n[nH]c(=S)[nH]3)cc2)c2ccccc2n1 (relative stereo) | 0.092 µM | > 3.33 µM | > 4.5 µM | > 6.37 µM | > 6.02 µM | > 5.03 µM
13 | Cc1cc(COc2ccc(C(=O)NCc3n[nH]c(=S)[nH]3)cc2)c2ccccc2n1 | > 1 µM | > 3.33 µM | > 4.5 µM | > 6.37 µM | > 6.02 µM | > 5.03 µM
14 | O=C(NCCCc1n[nH]c(=S)[nH]1)c1ccc(OCc2ccnc3ccccc23)cc1 | 0.294 µM | > 3.33 µM | > 4.5 µM | > 6.37 µM | > 6.02 µM | > 5.03 µM
15 | Cc1cc(COc2ccc(C(=O)N[C@@H]3CN(C(=O)OC(C)(C)C)C[C@@H]3c3n[nH]c(=S)[nH]3)cc2)c2ccccc2n1 (relative stereo) | 0.014 µM | > 3.33 µM | > 4.5 µM | > 6.37 µM | 3.56 µM | > 5.03 µM

Now from value to compound:

Row | IC50 [1] | Ki [2] | Ki (Stromelysin-1) | Ki (Matrilysin) | Ki [3] | Ki (Collagenase 3) | SMILES
16 | 0.015 µM | > 3.33 µM | > 4.5 µM | > 6.37 µM | > 6.02 µM | > 5.03 µM | CCCN1CC[C@H](c2n[nH]c(=S)[nH]2)[C@H](NC(=O)c2ccc(OCc3cc(C)nc4ccccc34)cc2)C1 (relative stereo)
17 | 0.028 µM | > 3.33 µM | > 4.5 µM | > 6.37 µM | > 6.02 µM | > 5.03 µM | Cc1cc(COc2ccc(C(=O)N[C@@H]3CN(S(C)(=O)=O)CC[C@@H]3c3n[nH]c(=S)[nH]3)cc2)c2ccccc2n1 (relative stereo)
18 | 0.016 µM | > 3.33 µM | > 4.5 µM | 5.37 µM | 0.958 µM | > 5.03 µM | Cc1cc(COc2ccc(C(=O)N[C@@H]3CN(C)CC[C@@H]3c3n[nH]c(=S)[nH]3)cc2)c2ccccc2n1 (relative stereo)
19 | 0.0025 µM | > 3.33 µM | > 4.5 µM | > 6.37 µM | > 6.02 µM | 3.14 µM | CC(=O)N1CC[C@H](c2n[nH]c(=S)[nH]2)[C@H](NC(=O)c2ccc(OCc3cc(C)nc4ccccc34)cc2)C1 (relative stereo)
20 | 0.031 µM | > 3.33 µM | > 4.5 µM | > 6.37 µM | > 6.02 µM | > 5.03 µM | Cc1cc(COc2ccc(C(=O)N[C@@H]3CN(C(C)C)CC[C@@H]3c3n[nH]c(=S)[nH]3)cc2)c2ccccc2n1 (relative stereo)
21 | 0.0099 µM | > 3.33 µM | > 4.5 µM | > 6.37 µM | > 6.02 µM | 2.46 µM | CCCN1C[C@H](c2n[nH]c(=S)[nH]2)[C@H](NC(=O)c2ccc(OCc3cc(C)nc4ccccc34)cc2)C1 (relative stereo)
22 | 0.073 µM | > 3.33 µM | > 4.5 µM | > 6.37 µM | > 6.02 µM | > 5.03 µM | C#CCN1CC[C@H](c2n[nH]c(=S)[nH]2)[C@H](NC(=O)c2ccc(OCc3cc(C)nc4ccccc34)cc2)C1 (relative stereo)
